Laboratory results: ChEMBL document CHEMBL1152349, “Optimization of 2-piperidin-4-yl-acetamides as melanin-concentrating hormone receptor 1 (MCH-R1) antagonists: Designing out hERG inhibition” (Bioorg Med Chem Lett, 2009)

Assays:
[1] = biological target: T1, Melanin-concentrating hormone receptor 1 (Homo sapiens, UniProt Q99705); assay: Displacement of [125I]MCH from human MCHR1 expressed in HEK293 cells; format: cell-based
[2] = system: Mus musculus; assay: Antiobesity activity in DIO mouse model assessed as reduction in weight at 50 umol/kg, po once daily after 21 days; format: functional; design: scale not given: the % may be the effect or the level left
[3] = biological target: T1, Melanin-concentrating hormone receptor 1; assay: Antagonist activity at human MCHR1 expressed in HEK293 cells assessed as [35S]GTPgammaS accumulation; format: functional, cell-based
[4] = Dissociation constant, pKa by pressure assisted capillary electrophoresis; format: physicochemical
[5] = biological target: T2, Voltage-gated inwardly rectifying potassium channel KCNH2 (Homo sapiens, UniProt Q12809); assay: Inhibition of human ERG expressed in CHO cells by patch clamp assay; format: cell-based
T2 sequence (Q12809 whole entry): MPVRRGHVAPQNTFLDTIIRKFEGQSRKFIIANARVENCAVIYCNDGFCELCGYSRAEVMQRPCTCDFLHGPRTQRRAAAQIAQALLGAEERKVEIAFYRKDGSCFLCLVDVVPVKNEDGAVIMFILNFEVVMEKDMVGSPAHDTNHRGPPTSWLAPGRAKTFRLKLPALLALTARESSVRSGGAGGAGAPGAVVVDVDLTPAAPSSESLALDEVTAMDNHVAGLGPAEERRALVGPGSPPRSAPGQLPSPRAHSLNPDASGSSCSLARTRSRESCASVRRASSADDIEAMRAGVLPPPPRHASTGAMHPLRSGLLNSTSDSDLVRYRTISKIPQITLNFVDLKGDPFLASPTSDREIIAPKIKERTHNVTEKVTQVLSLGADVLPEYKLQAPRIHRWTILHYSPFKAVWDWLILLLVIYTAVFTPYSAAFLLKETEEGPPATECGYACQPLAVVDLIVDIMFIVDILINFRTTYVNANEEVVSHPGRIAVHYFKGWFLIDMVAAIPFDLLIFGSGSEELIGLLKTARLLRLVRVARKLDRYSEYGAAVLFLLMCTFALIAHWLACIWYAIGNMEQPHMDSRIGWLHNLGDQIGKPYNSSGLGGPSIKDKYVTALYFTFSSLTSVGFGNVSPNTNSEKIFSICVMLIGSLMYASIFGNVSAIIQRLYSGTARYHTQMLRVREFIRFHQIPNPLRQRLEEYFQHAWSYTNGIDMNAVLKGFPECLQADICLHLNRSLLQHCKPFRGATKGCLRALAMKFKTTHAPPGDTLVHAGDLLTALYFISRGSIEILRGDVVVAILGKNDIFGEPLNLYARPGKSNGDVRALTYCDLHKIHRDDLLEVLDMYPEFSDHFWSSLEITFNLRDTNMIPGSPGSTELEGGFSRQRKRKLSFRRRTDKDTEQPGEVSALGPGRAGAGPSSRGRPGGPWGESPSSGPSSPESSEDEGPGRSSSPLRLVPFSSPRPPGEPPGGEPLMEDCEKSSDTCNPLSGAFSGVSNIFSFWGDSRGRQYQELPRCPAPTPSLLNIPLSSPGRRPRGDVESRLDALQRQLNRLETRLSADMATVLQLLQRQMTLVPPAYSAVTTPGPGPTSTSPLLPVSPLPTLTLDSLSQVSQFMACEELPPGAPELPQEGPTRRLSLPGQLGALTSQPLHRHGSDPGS

[6] = biological target: Sodium channel protein type 5 subunit alpha (Homo sapiens, UniProt Q14524); assay: Inhibition of NaV1.5 sodium channel expressed in CHO cells by patch clamp assay; format: cell-based
Sequence of Sodium channel protein type 5 subunit alpha (Q14524 whole entry): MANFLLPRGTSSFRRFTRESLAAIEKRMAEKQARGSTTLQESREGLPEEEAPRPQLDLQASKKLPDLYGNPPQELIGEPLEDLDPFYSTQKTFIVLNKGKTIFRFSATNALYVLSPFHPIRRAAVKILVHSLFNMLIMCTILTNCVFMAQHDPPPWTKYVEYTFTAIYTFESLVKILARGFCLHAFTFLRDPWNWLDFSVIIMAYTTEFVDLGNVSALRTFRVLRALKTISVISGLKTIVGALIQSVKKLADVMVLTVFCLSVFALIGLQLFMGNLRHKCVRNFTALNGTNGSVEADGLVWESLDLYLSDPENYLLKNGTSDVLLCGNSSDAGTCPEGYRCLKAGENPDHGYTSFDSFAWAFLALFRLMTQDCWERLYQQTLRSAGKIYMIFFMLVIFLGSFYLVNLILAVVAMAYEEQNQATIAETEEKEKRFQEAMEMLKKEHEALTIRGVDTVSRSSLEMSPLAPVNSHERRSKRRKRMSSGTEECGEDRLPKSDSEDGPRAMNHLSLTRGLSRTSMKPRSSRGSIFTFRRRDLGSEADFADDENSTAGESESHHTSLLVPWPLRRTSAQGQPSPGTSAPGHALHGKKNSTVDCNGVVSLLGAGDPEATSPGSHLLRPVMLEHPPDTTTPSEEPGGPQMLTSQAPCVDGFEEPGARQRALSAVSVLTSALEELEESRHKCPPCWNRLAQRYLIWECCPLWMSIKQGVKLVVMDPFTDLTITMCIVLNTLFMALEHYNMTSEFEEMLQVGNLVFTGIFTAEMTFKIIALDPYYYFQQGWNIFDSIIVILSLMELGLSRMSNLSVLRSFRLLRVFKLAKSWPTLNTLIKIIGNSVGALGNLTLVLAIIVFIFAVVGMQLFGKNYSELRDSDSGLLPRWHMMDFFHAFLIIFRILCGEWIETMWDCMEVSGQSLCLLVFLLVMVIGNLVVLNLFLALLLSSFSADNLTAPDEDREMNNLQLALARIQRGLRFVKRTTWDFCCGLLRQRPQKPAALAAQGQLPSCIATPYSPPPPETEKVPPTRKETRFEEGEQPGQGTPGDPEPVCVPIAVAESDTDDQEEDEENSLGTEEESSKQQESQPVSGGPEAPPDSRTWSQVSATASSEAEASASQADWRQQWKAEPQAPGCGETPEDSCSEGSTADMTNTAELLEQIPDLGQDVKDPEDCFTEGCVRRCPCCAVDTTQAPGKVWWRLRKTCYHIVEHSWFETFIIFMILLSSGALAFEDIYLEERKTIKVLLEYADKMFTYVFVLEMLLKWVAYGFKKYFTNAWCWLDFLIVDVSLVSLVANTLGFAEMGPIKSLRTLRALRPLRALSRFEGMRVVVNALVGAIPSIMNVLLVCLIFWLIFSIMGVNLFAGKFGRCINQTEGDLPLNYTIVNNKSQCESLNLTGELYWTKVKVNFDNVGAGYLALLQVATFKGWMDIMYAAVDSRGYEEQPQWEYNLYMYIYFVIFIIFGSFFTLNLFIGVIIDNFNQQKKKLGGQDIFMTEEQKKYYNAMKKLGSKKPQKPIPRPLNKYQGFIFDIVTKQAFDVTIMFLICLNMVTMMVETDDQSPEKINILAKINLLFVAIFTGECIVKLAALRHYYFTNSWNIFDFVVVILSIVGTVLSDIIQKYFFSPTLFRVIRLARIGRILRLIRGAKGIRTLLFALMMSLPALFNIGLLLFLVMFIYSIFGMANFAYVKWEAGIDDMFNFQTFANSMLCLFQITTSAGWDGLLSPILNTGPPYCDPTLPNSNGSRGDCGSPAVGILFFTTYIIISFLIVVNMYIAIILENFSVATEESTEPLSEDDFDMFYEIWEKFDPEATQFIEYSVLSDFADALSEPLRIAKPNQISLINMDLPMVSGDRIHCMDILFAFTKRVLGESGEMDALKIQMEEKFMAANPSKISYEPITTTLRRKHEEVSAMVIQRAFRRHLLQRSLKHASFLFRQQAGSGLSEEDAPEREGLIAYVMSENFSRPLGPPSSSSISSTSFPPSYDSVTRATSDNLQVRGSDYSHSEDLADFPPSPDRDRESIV

[7] = biological target: Melanin-concentrating hormone receptor 2 (Homo sapiens, UniProt Q969V1); assay: Displacement of [125I]MCH from human MCHR2 expressed in CHO cells; format: cell-based
Sequence of Melanin-concentrating hormone receptor 2 (Q969V1 whole entry): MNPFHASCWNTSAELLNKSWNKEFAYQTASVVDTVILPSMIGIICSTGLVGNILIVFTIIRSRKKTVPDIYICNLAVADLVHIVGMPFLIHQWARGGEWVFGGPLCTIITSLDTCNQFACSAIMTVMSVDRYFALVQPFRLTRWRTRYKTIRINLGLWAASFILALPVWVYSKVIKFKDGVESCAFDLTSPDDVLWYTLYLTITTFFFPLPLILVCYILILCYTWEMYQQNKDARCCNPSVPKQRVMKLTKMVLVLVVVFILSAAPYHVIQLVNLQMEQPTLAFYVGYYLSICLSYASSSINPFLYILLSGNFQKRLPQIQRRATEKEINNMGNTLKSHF

[8] = system: Liver microsomes; assay: Intrinsic clearance in human liver microsomes; format: ADME, Microsome
[9] = biological target: T2, Voltage-gated inwardly rectifying potassium channel KCNH2; assay: Inhibition of human ERG activation expressed in CHO cells by rubidium efflux assay; format: cell-based

T1 sequence (Q99705 whole entry): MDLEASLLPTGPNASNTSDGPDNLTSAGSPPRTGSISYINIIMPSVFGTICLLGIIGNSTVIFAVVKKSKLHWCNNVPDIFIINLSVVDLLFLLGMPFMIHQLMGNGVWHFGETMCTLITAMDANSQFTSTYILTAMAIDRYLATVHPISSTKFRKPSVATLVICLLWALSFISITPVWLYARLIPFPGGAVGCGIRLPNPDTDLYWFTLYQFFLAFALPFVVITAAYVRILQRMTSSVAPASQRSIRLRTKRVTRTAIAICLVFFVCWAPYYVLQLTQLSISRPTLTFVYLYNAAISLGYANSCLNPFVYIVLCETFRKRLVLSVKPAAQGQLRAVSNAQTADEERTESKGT

| SMILES | IC50 [1] [µM] | IC50 [5] [µM] | other results |
| --- | --- | --- | --- |
| COCC(O)CN(Cc1ccc(F)cc1)C(=O)CC1CCN(Cc2ccc(-c3ccc(Cl)cc3)o2)CC1 (stereo not given) | 0.15 | 1.09 |  |
| O=C(NCc1ccc(O)cc1Cl)C1CCN(Cc2ccn(-c3ccc(C(F)(F)F)cc3)c2)CC1 | 0.03 |  |  |
| CN(CCC(=O)N1CCCC1)C(=O)CC1CCN(Cc2ccn(-c3ccc(C(F)(F)F)cc3)c2)CC1 | 0.142 |  |  |
| O=C(NCc1ccc(Cl)cc1Cl)N1CCN(Cc2ccn(-c3ccc(C(F)(F)F)cc3)c2)CC1 | 0.008 |  | IC50 [9]: 1.6 µM; pKa [4]: 6.2 |
| O=C(CC1CCN(Cc2ccc(-c3ccc(Cl)cc3)o2)CC1)NCC(O)C(F)(F)F (stereo not given) | 0.815 | 1.02 |  |
| O=C(NCC1(O)CCCCC1)C1CCN(Cc2ccn(-c3ccc(C(F)(F)F)cc3)c2)CC1 | 0.04 | 11.7 |  |
| O=C(NCc1ccc(Cl)cc1O)C1CCN(Cc2ccn(-c3ccc(C(F)(F)F)cc3)c2)CC1 | 0.022 | 1.55 |  |
| O=C(C1CCCCN1C(=O)CC1CCN(Cc2ccn(-c3ccc(C(F)(F)F)cc3)c2)CC1)N1CCCC1 (stereo not given) | 0.066 |  |  |
| O=C(NCc1ccc(Cl)cc1Cl)C1CCN(Cc2ccn(-c3ccc(C(F)(F)F)cn3)c2)CC1 | 0.444 |  | IC50 [9]: 3.5 µM; pKa [4]: 8.3 |
| O=C(NCCc1ccccn1)C1CCN(Cc2ccn(-c3ccc(C(F)(F)F)cc3)c2)CC1 | 0.339 | 10 |  |
| CCN(CC)C(=O)C1CCCN(C(=O)CC2CCN(Cc3ccn(-c4ccc(C(F)(F)F)cc4)c3)CC2)C1 (stereo not given) | 0.037 | 16 |  |
| O=C(NCc1c(O)cc(Cl)cc1Cl)C1CCN(Cc2ccn(-c3ccc(C(F)(F)F)cc3)c2)CC1 | 0.144 |  |  |
| O=C(CC1CCN(Cc2ccn(-c3ccc(C(F)(F)F)cc3)c2)CC1)N1CCN(C(=O)N2CCCC2)CC1 | 0.417 | 14 |  |
| O=C(CC1CCN(Cc2ccn(-c3ccc(C(F)(F)F)cc3)c2)CC1)N1CCOC(C(=O)N2CCCC2)C1 (stereo not given) | 0.173 |  |  |
| O=C(CC1CCN(Cc2ccn(-c3ccc(C(F)(F)F)cc3)c2)CC1)N1CCCC(C(=O)N2CCCC2)C1 (stereo not given) | 0.071 | 31 |  |
| O=C(CC1CCN(Cc2ccc(-c3ccc(Cl)cc3)o2)CC1)N1CCCC(CO)C1 (stereo not given) | 0.597 | 2.34 |  |

Second part, led by results:

| IC50 [1] [µM] | SMILES | IC50 [5] [µM] | other results |
| --- | --- | --- | --- |
| 0.013 | O=C(CC1CCN(Cc2ccn(-c3ccc(C(F)(F)F)cn3)c2)CC1)NC(c1ccc(F)cc1)c1ccc(F)cc1 |  | Activity [2]: 18.2%; IC50 [3]: 0.017 µM; pKa [4]: 9.1 |
| 0.021 | O=C(CC1CCN(Cc2ccn(-c3ccc(C(F)(F)F)cc3)c2)CC1)NC(c1ccc(F)cc1)c1ccc[n+]([O-])c1 (stereo not given) | > 31.6 |  |
| 0.006 | O=C(CC1CCN(Cc2ccn(-c3ccc(C(F)(F)F)cc3)c2)CC1)NC(c1ccc(F)cc1)c1c[nH]c(=O)c(Cl)c1 (stereo not given) | > 31.6 | IC50 [3]: 0.021 µM; IC50 [6]: > 31.6 µM; IC50 [7]: 4.6 µM; clearance [8]: < 15 µL/min/mg |
| 0.055 | O=C(CN1CCN(Cc2ccn(-c3ccc(C(F)(F)F)cn3)c2)CC1)NC(c1ccc(F)cc1)c1ccc(F)cc1 | 0.8 | pKa [4]: 6.5 |
| 0.004 | O=C(CC1CCN(Cc2ccn(-c3ccc(C(F)(F)F)cc3)c2)CC1)N(CCCO)Cc1ccc(F)cc1 | 0.63 |  |
| 0.005 | CCCCC(NC(=O)CC1CCN(Cc2ccn(-c3ccc(C(F)(F)F)cc3)c2)CC1)c1ccc(OC)nc1 (stereo not given) | 1 |  |
| 0.313 | Cn1cccc1CNC(=O)CC1CCN(Cc2ccn(-c3ccc(C(F)(F)F)cc3)c2)CC1 |  |  |
| 0.017 | O=C(CC1CCN(Cc2ccn(-c3ccc(C(F)(F)F)cc3)c2)CC1)NC(c1ccncc1)c1ccc(Cl)cc1 (stereo not given) |  |  |
| 0.002 | COc1ccc(C(NC(=O)CC2CCN(Cc3ccn(-c4ccc(C(F)(F)F)cc4)c3)CC2)c2ccc(F)cc2)cn1 (stereo not given) | 1.75 |  |
| 0.002 | O=C(CC1CCN(Cc2ccn(-c3ccc(C(F)(F)F)cc3)c2)CC1)NC(c1ccc(F)cc1)c1ccc(=O)[nH]c1 (stereo not given) | > 31.6 | IC50 [3]: 0.025 µM |
| 0.039 | O=C(NC1CCN(Cc2ccn(-c3ccc(C(F)(F)F)cc3)c2)CC1)NC(c1ccccc1)c1ccccc1 | 3.8 | pKa [4]: 9.2 |
| 0.017 | O=C(CC1CCN(Cc2ccn(-c3ccc(C(F)(F)F)cc3)c2)CC1)NC(c1ccccc1)c1cnc[nH]1 (stereo not given) | 11.4 |  |
| 0.065 | Cc1nccn1CC(NC(=O)CC1CCN(Cc2ccn(-c3ccc(C(F)(F)F)cc3)c2)CC1)c1ccccc1 (stereo not given) | 26.6 |  |
| 0.041 | O=C(CC1CCN(Cc2ccn(-c3ccc(C(F)(F)F)cc3)c2)CC1)NC(c1ccccc1)c1ccccn1 (stereo not given) | 2.3 |  |
| 0.001 | CCCCC(NC(=O)CC1CCN(Cc2ccn(-c3ccc(C(F)(F)F)cc3)c2)CC1)c1ccc(=O)[nH]c1 (stereo not given) |  | IC50 [3]: 0.019 µM |
| 0.067 | CC(NC(=O)CC1CCN(Cc2ccn(-c3ccc(C(F)(F)F)cc3)c2)CC1)c1ccc(=O)[nH]c1 (stereo not given) | > 31.6 |  |
| 0.028 | O=C(CC1CCN(Cc2ccn(-c3ccc(C(F)(F)F)cc3)c2)CC1)NC(c1ccc(F)cc1)c1cccnc1 (stereo not given) | 2.17 |  |
